The values below come from patent US20090215678A1, “Preventing Vertical Endoparasite Infections” (BAYER HEALTHCARE AG, priority 2004, published 2009).

Data set [1] can be described thus: Tolerability in dams and pups in the beagle study. The format is in vivo. The note with it: 1 mg/kg orally, T1 and T2. The procedure: (§1) The investigations were carried out on eighteen beagle bitches which had been experimentally infected with Toxocara canis. Six of these animals served as the untreated control group. Two different treatment schemes were used. In treatment group 1 (T1), six bitches were treated daily, from the 42nd day of pregnancy onwards until the birth of the pups, with in each case 1 mg of emodepside/kg of body weight, given orally as a tablet formulation; the six bitches in treatment group 2 (T2) were treated in the same way except that the treatment was only given every third day instead of daily. The efficacy of the treatment was assessed by determining three target quantities in the pups: number of somatic T. canis larvae in samples of the liver, lung, kidney and gastrointestinal tract including content and musculature (euthanasia of the pups directly after birth), number of excreted eggs per gram of faeces and number of intestinal T. canis stages after washing out the intestine (euthanasia of the pups on the 35th day of life).
Incompatibility phenomena were not observed either in the dam or in the pups.

The test system of another data set is Toxocara canis. The data set can be described thus: Prevention of vertical (prenatal) Toxocara canis infection in pups of experimentally infected beagle bitches treated during pregnancy. The format is in vivo. To be noted: for percentage efficacy, number of excreted eggs per gram of faeces: measured in pups; for percentage efficacy, number of intestinal stages in the intestine: pups euthanised on 35th day of life. The procedure:
as §1

The mark [2] stands for this setting: T2: 1 mg/kg orally, every third day from 42nd day of pregnancy until birth.

Structures are written as SMILES.

`CC(C)C[C@H]1C(=O)O[C@H](Cc2ccc(N3CCOCC3)cc2)C(=O)N(C)[C@@H](CC(C)C)C(=O)O[C@H](C)C(=O)N(C)[C@@H](CC(C)C)C(=O)O[C@H](Cc2ccc(N3CCOCC3)cc2)C(=O)N(C)[C@@H](CC(C)C)C(=O)O[C@H](C)C(=O)N1C` [emodepside]: the “incompatibility phenomena in the dam or in the pups” value in data set [1] is given as “not observed”. Moreover, the “mean value of percentage efficacy obtained from the target quantities” value in the data set with Toxocara canis (T1 (daily treatment)) came to 98.7%; in the data set on Toxocara canis (T2 (treatment every third day)), 97.5%. Further, the “percentage efficacy, number of excreted eggs per gram of faeces” value with Toxocara canis (T1: 1 mg emodepside/kg body weight orally as tablet, daily from 42nd day of pregnancy until birth) came to 99.9%; in the data set with Toxocara canis (setting [2]), 99.9%. In the data set on Toxocara canis (T1: 1 mg/kg orally, daily from 42nd day of pregnancy until birth, pups euthanised directly after birth), the “percentage efficacy, number of somatic larvae in the digestive organs” value turned out to be 96.4%. Besides, the “percentage efficacy, number of intestinal stages in the intestine” value in the data set on Toxocara canis (T1: 1 mg/kg orally, daily from 42nd day of pregnancy until birth) stood at 99.9%; in the data set on Toxocara canis (setting [2]), 98.7%. Moreover, the “percentage efficacy, number of somatic larvae” value in the data set with Toxocara canis (T2: 1 mg/kg orally, every third day from 42nd day of pregnancy until birth, pups euthanised directly after birth) came to 93.8%. In the data set on Toxocara canis (both treatment schemes (T1 and T2)), the “prenatal infection with T. canis in the pups” value is “marked reduction”.
